The record followed here is ChEMBL document CHEMBL5465560, “Selectivity Literature for EUbOPEN Chemogenomic Library” (2024).

For test [1], the target named is T1, Interleukin-1 receptor-associated kinase 3 (Homo sapiens) (UniProt Q9Y616).
T1 sequence (whole entry): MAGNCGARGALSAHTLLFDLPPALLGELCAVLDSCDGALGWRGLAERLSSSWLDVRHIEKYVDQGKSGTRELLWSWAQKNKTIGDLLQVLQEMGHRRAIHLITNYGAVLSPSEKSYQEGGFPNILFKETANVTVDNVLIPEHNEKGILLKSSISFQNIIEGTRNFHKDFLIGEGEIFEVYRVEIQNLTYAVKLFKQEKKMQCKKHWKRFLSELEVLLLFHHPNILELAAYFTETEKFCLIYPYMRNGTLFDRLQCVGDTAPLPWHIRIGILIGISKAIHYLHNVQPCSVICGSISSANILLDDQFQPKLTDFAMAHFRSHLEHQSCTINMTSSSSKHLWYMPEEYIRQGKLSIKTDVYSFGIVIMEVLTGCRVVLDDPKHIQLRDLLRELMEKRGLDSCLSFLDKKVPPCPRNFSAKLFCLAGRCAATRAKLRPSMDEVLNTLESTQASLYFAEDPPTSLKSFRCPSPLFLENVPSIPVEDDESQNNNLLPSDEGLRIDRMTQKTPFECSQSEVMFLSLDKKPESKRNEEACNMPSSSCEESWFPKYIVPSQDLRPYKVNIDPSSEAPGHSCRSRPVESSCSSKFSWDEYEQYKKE
The experiment in a line: Selectivity interaction (LanthaScreen Eu Kinase Binding Assay) EUB0001632a IRAK3. The note with it: at 10 µM. A general note: In TR-FRET formats the signal depends on donor and acceptor labels being close together.

The target of test [2] is Serine/threonine-protein kinase 25 (Homo sapiens) (UniProt O00506). Particulars: at 10 µM.
For test [3], the target named is T2, Inhibitor of nuclear factor kappa-B kinase subunit epsilon (Homo sapiens) (UniProt Q14164).
T2 sequence (whole entry): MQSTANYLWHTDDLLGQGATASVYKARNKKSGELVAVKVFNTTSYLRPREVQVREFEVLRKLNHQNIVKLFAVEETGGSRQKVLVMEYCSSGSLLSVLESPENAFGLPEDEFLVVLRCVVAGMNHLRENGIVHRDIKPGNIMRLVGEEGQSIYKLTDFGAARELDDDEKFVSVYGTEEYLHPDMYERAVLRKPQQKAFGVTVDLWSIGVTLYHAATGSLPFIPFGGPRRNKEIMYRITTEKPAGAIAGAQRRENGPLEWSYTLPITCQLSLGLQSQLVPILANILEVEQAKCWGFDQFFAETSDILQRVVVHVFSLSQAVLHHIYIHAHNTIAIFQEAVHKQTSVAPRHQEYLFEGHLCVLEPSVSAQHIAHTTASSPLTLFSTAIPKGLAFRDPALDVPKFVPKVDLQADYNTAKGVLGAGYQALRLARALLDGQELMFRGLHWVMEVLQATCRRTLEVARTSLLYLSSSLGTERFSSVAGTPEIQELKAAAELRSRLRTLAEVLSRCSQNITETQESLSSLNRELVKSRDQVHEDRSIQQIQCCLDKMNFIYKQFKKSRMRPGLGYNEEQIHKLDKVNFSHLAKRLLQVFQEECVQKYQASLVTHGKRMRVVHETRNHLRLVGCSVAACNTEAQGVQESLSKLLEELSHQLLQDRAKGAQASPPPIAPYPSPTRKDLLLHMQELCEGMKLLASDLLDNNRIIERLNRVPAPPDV
In words: Selectivity interaction (KinomeScan (DiscoverX)) EUB0000229b IKBKE. Particulars: at 10 µM.

In test [4] the target is Rho-associated protein kinase 1 (Homo sapiens) (UniProt Q13464). The experiment in a line: Selectivity interaction (KinomeScan (DiscoverX)) EUB0000655a ROCK1. The note with it: at 10 µM.
In test [5] the target is T3, 5-hydroxytryptamine receptor 2C (Homo sapiens) (UniProt P28335).
T3 sequence (whole entry): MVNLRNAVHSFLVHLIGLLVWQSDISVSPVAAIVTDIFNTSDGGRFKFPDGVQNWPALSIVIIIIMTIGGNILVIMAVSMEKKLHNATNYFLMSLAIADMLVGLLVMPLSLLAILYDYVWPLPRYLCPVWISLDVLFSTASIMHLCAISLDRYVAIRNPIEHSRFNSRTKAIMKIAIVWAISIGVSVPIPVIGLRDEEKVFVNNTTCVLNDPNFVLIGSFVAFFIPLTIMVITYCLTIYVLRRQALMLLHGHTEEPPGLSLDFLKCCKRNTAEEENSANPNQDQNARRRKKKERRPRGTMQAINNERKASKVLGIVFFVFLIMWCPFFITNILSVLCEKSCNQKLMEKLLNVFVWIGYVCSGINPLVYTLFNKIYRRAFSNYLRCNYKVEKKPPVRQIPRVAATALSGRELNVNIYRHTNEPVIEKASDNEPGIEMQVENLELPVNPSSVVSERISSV
In words: Selectivity interaction (GPCR panel (PDSP screen)) EUB0000311b HTR2C. Particulars: at 10 µM.

The target of test [6] is Dual specificity protein kinase CLK1 (Homo sapiens, UniProt P49759). The experiment in a line: Selectivity interaction (KinomeScan (DiscoverX)) EUB0001079a CLK1. Particulars: at 1 µM.
Test [7] has as its target T4, Serine/threonine-protein kinase TBK1 (Homo sapiens) (UniProt Q9UHD2).
T4 sequence (whole entry): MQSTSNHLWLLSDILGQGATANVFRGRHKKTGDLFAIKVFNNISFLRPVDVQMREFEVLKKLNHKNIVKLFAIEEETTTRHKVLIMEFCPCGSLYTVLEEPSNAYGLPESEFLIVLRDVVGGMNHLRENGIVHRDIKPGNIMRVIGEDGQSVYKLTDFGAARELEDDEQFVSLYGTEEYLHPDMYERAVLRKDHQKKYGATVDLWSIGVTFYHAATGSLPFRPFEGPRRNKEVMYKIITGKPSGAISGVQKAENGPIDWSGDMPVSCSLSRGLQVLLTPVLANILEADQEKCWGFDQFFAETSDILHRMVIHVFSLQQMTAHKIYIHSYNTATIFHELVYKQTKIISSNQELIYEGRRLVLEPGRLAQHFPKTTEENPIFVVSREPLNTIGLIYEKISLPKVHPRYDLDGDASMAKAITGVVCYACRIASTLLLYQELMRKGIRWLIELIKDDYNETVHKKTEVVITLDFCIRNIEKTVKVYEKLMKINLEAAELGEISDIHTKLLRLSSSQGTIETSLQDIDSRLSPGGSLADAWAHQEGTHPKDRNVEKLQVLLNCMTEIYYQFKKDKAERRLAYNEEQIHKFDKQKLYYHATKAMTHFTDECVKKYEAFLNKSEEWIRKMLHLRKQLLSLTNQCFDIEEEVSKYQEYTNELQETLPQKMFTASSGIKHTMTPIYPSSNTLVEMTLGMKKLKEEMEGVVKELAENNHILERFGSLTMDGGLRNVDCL
The experiment in a line: Selectivity interaction (Kinase panel (Invitrogen)) EUB0000639a TBK1. The note with it: at 200 nM.

For test [8], the target named is Protein arginine N-methyltransferase 3 (Homo sapiens, UniProt O60678). In words: Selectivity interaction (Transferase panel (protein, RNA, and DNA methyltransferases. and EP300 (acetyltransferase))) EUB0000270b PRMT3.
For test [9], the target named is Dual specificity protein kinase CLK3 (Homo sapiens, UniProt P49761). The experiment in a line: Selectivity interaction (KinomeScan (DiscoverX)) EUB0000618a CLK3. Particulars: at 10 µM.

The structures appear in SMILES notation.

Chain of Protein arginine N-methyltransferase 3 (O60678 2-531 limits assumed): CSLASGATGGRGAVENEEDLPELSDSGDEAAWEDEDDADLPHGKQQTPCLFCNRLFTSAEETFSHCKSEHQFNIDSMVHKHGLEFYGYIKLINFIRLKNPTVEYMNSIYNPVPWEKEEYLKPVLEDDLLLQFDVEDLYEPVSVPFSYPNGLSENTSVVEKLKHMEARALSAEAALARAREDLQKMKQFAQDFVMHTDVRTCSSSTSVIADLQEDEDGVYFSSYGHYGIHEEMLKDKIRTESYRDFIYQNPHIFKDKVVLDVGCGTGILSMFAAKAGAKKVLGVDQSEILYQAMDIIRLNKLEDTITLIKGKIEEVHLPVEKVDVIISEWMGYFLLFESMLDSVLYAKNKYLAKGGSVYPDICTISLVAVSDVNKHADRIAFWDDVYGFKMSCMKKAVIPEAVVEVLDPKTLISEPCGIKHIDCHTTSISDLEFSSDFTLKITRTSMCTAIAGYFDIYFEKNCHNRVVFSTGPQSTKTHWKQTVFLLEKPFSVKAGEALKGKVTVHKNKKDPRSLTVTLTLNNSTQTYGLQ
Chain of Dual specificity protein kinase CLK3 (P49761 whole entry, looked up): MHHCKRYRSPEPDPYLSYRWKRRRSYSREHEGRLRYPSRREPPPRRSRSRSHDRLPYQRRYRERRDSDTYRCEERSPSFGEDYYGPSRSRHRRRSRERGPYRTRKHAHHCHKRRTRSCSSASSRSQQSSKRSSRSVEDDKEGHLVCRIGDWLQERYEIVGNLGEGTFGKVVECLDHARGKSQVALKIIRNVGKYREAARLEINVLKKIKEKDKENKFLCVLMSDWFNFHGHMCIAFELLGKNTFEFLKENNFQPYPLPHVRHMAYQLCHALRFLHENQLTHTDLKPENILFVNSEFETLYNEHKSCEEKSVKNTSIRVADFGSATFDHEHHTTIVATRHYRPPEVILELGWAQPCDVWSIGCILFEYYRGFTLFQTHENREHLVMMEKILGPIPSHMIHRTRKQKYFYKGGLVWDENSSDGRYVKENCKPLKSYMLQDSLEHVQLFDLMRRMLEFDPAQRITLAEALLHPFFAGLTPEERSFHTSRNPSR
Chain of Serine/threonine-protein kinase 25 (Homo sapiens) (O00506 whole entry, looked up): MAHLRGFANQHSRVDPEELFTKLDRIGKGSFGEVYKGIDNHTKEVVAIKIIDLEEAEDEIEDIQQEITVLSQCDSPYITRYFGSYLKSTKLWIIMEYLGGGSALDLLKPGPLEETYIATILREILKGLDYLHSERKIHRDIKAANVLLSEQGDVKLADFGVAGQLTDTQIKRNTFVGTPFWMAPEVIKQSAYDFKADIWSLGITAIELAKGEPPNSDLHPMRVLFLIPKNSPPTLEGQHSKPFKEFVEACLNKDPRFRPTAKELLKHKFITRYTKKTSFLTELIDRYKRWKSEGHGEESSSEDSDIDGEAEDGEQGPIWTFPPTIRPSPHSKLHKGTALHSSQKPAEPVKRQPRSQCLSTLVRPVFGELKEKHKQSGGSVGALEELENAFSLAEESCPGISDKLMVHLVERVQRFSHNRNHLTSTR
Chain of Dual specificity protein kinase CLK1 (P49759 whole entry, looked up): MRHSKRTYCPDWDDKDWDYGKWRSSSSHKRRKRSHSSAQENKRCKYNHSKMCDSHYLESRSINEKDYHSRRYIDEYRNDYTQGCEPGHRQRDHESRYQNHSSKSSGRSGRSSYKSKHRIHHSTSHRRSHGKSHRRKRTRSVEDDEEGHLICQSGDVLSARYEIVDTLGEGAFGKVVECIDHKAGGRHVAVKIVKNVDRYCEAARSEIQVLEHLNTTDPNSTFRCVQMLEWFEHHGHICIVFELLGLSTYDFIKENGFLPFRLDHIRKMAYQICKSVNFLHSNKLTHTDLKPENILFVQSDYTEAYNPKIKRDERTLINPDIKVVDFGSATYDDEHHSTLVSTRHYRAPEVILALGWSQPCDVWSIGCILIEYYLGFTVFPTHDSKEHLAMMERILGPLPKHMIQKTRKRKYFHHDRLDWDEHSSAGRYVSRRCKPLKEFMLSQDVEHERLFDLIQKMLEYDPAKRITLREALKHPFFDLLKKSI
Chain of Rho-associated protein kinase 1 (Homo sapiens) (Q13464 2-1354 limits assumed): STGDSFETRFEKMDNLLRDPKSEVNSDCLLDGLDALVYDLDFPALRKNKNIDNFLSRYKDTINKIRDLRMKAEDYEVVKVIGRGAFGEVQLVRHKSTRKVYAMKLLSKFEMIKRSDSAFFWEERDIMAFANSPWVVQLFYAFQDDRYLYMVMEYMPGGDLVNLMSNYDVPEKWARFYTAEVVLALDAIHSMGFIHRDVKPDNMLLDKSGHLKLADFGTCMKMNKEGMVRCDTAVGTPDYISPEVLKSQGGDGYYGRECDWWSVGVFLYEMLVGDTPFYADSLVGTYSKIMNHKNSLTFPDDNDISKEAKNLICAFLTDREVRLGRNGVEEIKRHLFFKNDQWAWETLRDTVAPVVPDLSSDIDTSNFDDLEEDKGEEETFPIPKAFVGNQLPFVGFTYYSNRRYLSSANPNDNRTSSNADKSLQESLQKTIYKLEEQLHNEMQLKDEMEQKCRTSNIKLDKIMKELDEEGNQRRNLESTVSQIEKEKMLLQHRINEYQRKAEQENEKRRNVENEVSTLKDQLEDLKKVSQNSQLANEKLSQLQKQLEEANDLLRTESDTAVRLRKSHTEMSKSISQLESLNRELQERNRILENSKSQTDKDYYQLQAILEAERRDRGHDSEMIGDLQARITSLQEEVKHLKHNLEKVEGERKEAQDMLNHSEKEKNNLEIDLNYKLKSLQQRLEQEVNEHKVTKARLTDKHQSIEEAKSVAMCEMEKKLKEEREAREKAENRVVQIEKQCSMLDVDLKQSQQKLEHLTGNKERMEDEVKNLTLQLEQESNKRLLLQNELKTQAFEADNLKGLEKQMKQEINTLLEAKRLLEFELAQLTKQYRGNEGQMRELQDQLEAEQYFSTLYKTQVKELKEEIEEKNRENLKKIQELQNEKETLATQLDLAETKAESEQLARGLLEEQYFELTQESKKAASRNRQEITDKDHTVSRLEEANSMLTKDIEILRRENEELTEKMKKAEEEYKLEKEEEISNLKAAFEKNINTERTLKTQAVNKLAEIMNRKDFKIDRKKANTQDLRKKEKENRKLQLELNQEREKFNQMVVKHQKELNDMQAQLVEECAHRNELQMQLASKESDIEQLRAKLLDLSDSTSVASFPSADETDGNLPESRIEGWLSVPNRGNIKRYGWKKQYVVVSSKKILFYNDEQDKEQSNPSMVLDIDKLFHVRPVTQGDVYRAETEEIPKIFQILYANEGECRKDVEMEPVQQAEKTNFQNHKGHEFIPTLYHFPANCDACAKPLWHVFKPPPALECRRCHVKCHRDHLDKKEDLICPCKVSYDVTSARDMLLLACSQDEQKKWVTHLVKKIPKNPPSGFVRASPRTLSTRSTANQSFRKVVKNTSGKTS

Regarding `Cn1cc(-n2cnc3c(NCc4nc5cc(Cl)c(Cl)cc5[nH]4)nc(N4CCOCC4)nc32)cn1`, the % of inhibition in test [1] was -15.9%.
Take `Cc1cc([C@@H](C)Nc2ccccc2C(=O)O)c2nc(N3CCOCC3)cc(=O)n2c1` [AZD-6482]: the % of control in test [2] turned out to be 76%.
For the compound `COc1cc(N(C)c2ccnc3ccc(C(F)(F)F)cc23)cc(OC)c1OC`, the % binding in [3] turned out to be 84%.
In turn, `CN(C)CCOc1ccc(-c2nc(-c3ccncc3)c(-c3ccc4c(c3)CC/C4=N\O)[nH]2)cc1` showed a % of control in test [4] of 77%.
Regarding `CCc1ccccc1C(=O)Nc1n[nH]c2c(C)c(F)c(C3C(C#N)=C(C)N(C)C(C)=C3C#N)cc12` [BAY-3827], the % of inhibition in test [5] was determined as 20%.
As for `Nc1cnc(N2CCc3cc(S(=O)(=O)Nc4c(F)cc(Cl)cc4F)cc(N4CCCC4=O)c32)nc1` [TP-020n], in test [6], the % of control was 85%.
Take `CC[C@@H]1[C@H](F)C(=O)N[C@@H]1COc1nccc2cc(C(N)=O)c(OC)cc12` [ZIMLOVISERTIB]: the % of inhibition in test [7] turned out to be 7.67%.
Regarding `Cc1cc(CN)cc(C)c1-c1ncn(C)c1-c1cncn1C`, the % activity in test [8] (at 1 µM) is greater than 90%; in test [8] (at 10 µM) it was greater than 80%.
In [9], `O[C@H]1CC[C@H](Nc2ncc3nc(Nc4c(F)cc(F)cc4F)n([C@H]4CCOC4)c3n2)CC1` showed a % of control of 93%.
